In US20220323406A1, “METHODS AND COMPOSITIONS FOR DIFFERENTIATING STEM CELLS” (Massachusetts Institute of Technology, priority 2019, published 2022):

Key:
Details in all cases: primary screen
[1] = tested on: ENR+CD organoids (ISC to Paneth cell differentiation); experiment: Primary screen: basal (non-stimulated) lysozyme secretion LYZ.NS, 2.5-D 384-well ENR+CD organoid differentiation; format: cell-based, mouse
Source text: (§1) High-throughput screening.

[2] = tested on: ENR+CD organoids (ISC to Paneth cell differentiation); experiment: Primary screen: CCh-stimulated lysozyme secretion LYZ.S, 2.5-D 384-well ENR+CD organoid differentiation; format: cell-based, mouse
Source text: as §1

[3] = tested on: ENR+CD organoids; experiment: Primary screen: ATP (CellTiter-Glo 3D, CTG) cell number/viability, 2.5-D 384-well ENR+CD organoids;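 note: compounds given at plating and again on day 3 over a 6-day differentiation from ENR+CV stem-cell-enriched precursors, ATP measured on day 6, plate median as control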

SMILES	Dose.FC.LYZ.NS ([1]; dose 0.08 uM)	Z.LYZ.NS (standard z score) ([1]; dose 0.08 uM)	Dose.FC.LYZ.NS ([1]; dose 0.40 uM)	Z.LYZ.NS (standard z score) ([1]; dose 0.40 uM)	Dose.FC.LYZ.NS ([1]; dose 2.00 uM)	Z.LYZ.NS (standard z score) ([1]; dose 2.00 uM)	Dose.FC.LYZ.NS ([1]; dose 10.00 uM)	Z.LYZ.NS (standard z score) ([1]; dose 10.00 uM)	Dose.FC.LYZ.S ([2]; dose 0.08 uM)	Dose.FC.LYZ.S ([2]; dose 0.40 uM)	Dose.FC.LYZ.S ([2]; dose 2.00 uM)	Dose.FC.LYZ.S ([2]; dose 10.00 uM)	Dose.FC.CTG ([3]; dose 0.08 uM)	Z.CTG (standard z score) ([3]; dose 0.08 uM)	Dose.FC.CTG ([3]; dose 0.40 uM)	Z.CTG (standard z score) ([3]; dose 0.40 uM)	Dose.FC.CTG ([3]; dose 2.00 uM)	Z.CTG (standard z score) ([3]; dose 2.00 uM)	Dose.FC.CTG ([3]; dose 10.00 uM)	Z.CTG (standard z score) ([3]; dose 10.00 uM)
CCCCNc1ncc(-c2ccc(CN3CCOCC3)cn2)c(NC2CCC(O)CC2)n1 (stereo not shown) [UNC2250]	0.115 log2 fold change	1.005	0.067 log2 fold change	0.587	0.085 log2 fold change	0.744	−0.153 log2 fold change	−1.336	0.142 log2 fold change	0.113 log2 fold change	0.134 log2 fold change	−0.205 log2 fold change	0.265 log2 fold change	0.633	0.279 log2 fold change	0.667	0.105 log2 fold change	0.250	−0.064 log2 fold change	−0.153
NC(=O)c1cccc(-c2cccc(OC(=O)NC3CCCCC3)c2)c1 [URB597]	0.087 log2 fold change	0.754	−0.001 log2 fold change	−0.007	0.035 log2 fold change	0.307	−0.014 log2 fold change	−0.123	0.141 log2 fold change	0.021 log2 fold change	0.017 log2 fold change	−0.044 log2 fold change	0.314 log2 fold change		0.065 log2 fold change		0.137 log2 fold change		−0.021 log2 fold change	
CS(=O)(=O)c1ccc(-c2cnc(N)c(C(=O)Nc3ccccc3)n2)cc1 [VE-821]	0.106 log2 fold change	0.924	0.063 log2 fold change	0.544	0.103 log2 fold change	0.901	−0.284 log2 fold change	−2.475	0.130 log2 fold change	0.089 log2 fold change	−0.004 log2 fold change	−0.429 log2 fold change	0.213 log2 fold change		0.130 log2 fold change		−0.137 log2 fold change		−0.840 log2 fold change	
CNCc1ccc(-c2cc(-c3nc(-c4ccc(S(=O)(=O)C(C)C)cc4)cnc3N)on2)cc1 [VE-822]	0.058 log2 fold change	0.505	−0.040 log2 fold change	−0.351	−0.220 log2 fold change	−1.913	−0.210 log2 fold change	−1.825	0.104 log2 fold change	−0.064 log2 fold change	−0.302 log2 fold change	−0.321 log2 fold change	−0.147 log2 fold change		−0.287 log2 fold change		−0.717 log2 fold change		−1.763 log2 fold change	
Cc1cc(Nc2cc(N3CCN(C)CC3)nc(Sc3ccc(NC(=O)C4CC4)cc3)n2)n[nH]1 [VX-680 (Tozasertib, MK-0457)]	−0.043 log2 fold change	−0.371	−0.151 log2 fold change	−1.317	−0.166 log2 fold change	−1.450	−0.238 log2 fold change	−2.069	−0.078 log2 fold change	−0.245 log2 fold change	−0.308 log2 fold change	−0.342 log2 fold change	−0.150 log2 fold change	−0.359	−0.596 log2 fold change	−1.425	−0.706 log2 fold change	−1.686	−0.959 log2 fold change	−2.291
